Test results published in patent US9018214B2, “Bicyclic heterocycle compounds and their uses in therapy” (Astex Therapeutics Limited, priority 2011, dated 2015).
Where a name gives a salt, the structure may show the parent alone. Read-outs that look alike come from different tables or passages of the source.

Experiments:
[1] = tested on: MDA-MB-231 (human breast carcinoma); assay: Anti-proliferative activity, Alamar Blue assay, MDA-MB-231; format: cell-based; conditions: read-out: EC50, inhibition of cell growth
[2] = tested on: EVSA-T (human breast carcinoma); assay: Anti-proliferative activity, Alamar Blue assay, EVSA-T; format: cell-based; conditions: Homo sapiens
[3] = biological target: BIR3 domain of human cIAP-1 (residues 267-363) (Homo sapiens (Human), UniProt Q13490); assay: cIAP-1 in vitro competitive displacement binding assay (fluorescence polarization; Probe A AVPIK(5&6FAM)-amide or Probe B AbuRPFK(5&6FAM)-amide)
[4] = biological target: BIR3 domain of human XIAP (residues 252-350) (Homo sapiens (Human), UniProt P98170); assay: XIAP in vitro competitive displacement binding assay (fluorescence polarization); conditions: for IC50: read-out: IC50 or PI Xiap: IC50; for inhibition at 0.04 µM: 1 h, read-out: IC50 or PI Xiap: PI
[5] = EVSA-T, 72 h, read-out: EC50, inhibition of cell growth
[6] = EVSA-T, 72 h, read-out: EVSA-T prolif (EC50)
[7] = read-out: IC50 or PI cIAP1: IC50
[8] = MDA-MB-231 cell line, 72 hours, Alamar Blue
[9] = EVSA-T cell line, 72 hours, Alamar Blue, read-out: EC50, inhibition of cell growth
[10] = EVSA-T, 72 hours, Alamar Blue, read-out: EVSA-T prolif (EC50)
[11] = Probe B AbuRPFK(5&6FAM)-amide, read-out: IC50 or PI cIAP1: IC50

Row | SMILES | IC50 [4] [nM] | EC50 [1, 8] [nM] | EC50 [2, 9] [nM] | EC50 [2, 10] [nM] | IC50 [3, 11] [nM] | EC50 ([1]; MDA-MB-231, 72 h) [nM] | EC50 [2, 6] [nM] | IC50 [3, 7] [nM] | other results
1 | CC[C@H]1CN[C@H](C)CN1CC(=O)N1CC(C)(C)c2cc(F)c(S(=O)(=O)c3ccccc3)cc21 [Example 48, 1-(6-Benzenesulfonyl-5-fluoro-3,3-dimethyl-2,3-dihydro-indol-1-yl)-2-((2S,5R)-2-ethyl-5-methyl-piperazin-1-yl)-ethanone dihydrochloride salt] | 97 |  |  |  |  | < 10000 | 250 | 64 | EC50 [2, 5]: < 10000 nM; IC50 [3]: < 1000 nM
2 | COC[C@H]1CN[C@H](C)CN1CC(=O)N1CC(C)(C)c2cnc(C(=O)c3ccccc3)cc21 [Example 96, 1-{6-Benzoyl-3,3-dimethyl-1H,2H,3H-pyrrolo[3,2-c]pyridin-1-yl}-2-[(2R,5R)-2-(methoxymethyl)-5-methylpiperazin-1-yl]ethan-1-one, dihydrochloride salt] | 340 |  |  |  |  | < 10000 | 3000 | 77 | EC50 [2, 5]: < 10000 nM
3 | COC[C@H]1CN[C@H](C)CN1CC(=O)N1CC(C)(C)c2ccc(S(=O)(=O)CC(C)C)cc21 [Example 64, 1-[3,3-Dimethyl-6-(2-methyl-propane-1-sulfonyl)-2,3-dihydro-indol-1-yl]-2-((2R,5R)-2-methoxymethyl-5-methyl-piperazin-1-yl)-ethanone dihydrochloride salt] | 270 |  |  |  |  | < 10000 | 1000 | 140 | 
4 | C[C@@H]1CN(CC(=O)N2CC(C)(C)c3cnc(Oc4ccccc4Cl)cc32)[C@@H](C(=O)N(C)C)CN1 [Example 151, (2R,5R)-1-{2-[6-(2-Chlorophenoxy)-3,3-dimethyl-1H,2H,3H-pyrrolo[3,2-c]pyridin-1-yl]-2-oxoethyl}-N,N,5-trimethylpiperazine-2-carboxamide dihydrochloride] |  |  |  |  |  | < 10000 | 590 | 19 | inhibition at 0.04 µM [4]: 48%
5 | COC[C@H]1CN[C@H](C)CN1CC(=O)N1CC(C)(C)c2cnc(-c3cc4ccccc4o3)cc21 [Example 150, 1-[6-(1-Benzofuran-2-yl)-3,3-dimethyl-1H,2H,3H-pyrrolo[3,2-c]pyridin-1-yl]-2-[(2R,5R)-2-(methoxymethyl)-5-methylpiperazin-1-yl]ethan-1-one dihydrochloride] | 270 |  |  |  |  | < 10000 | 730 | 14 | 
6 | COC[C@H]1CN[C@H](C)CN1CC(=O)N1CC(C)(C)c2cc(=O)n(Cc3ccccc3)cc21 [Example 67, 6-Benzyl-1-[2-((2R,5R)-2-methoxymethyl-5-methyl-piperazin-1-yl)-acetyl]-3,3-dimethyl-1,2,3,6-tetrahydro-pyrrolo[2,3-c]pyridin-5-one hydrochloride salt] | 310 | < 10000 | < 10000 | 350 | 17 |  |  |  | IC50 [3]: < 1000 nM

Now from value to molecule, other results behind:

Row | IC50 [4] [nM] | EC50 [1, 8] [nM] | EC50 [2, 9] [nM] | EC50 [2, 10] [nM] | IC50 [3, 11] [nM] | SMILES | EC50 ([1]; MDA-MB-231, 72 h) [nM] | EC50 [2, 6] [nM] | IC50 [3, 7] [nM] | other results
7 |  | < 10000 | < 10000 | 67 |  | C[C@@H]1CN(CC(=O)N2CC(C)(C)c3cnc(Oc4ccccc4Cl)cc32)[C@@H](CN2CCCC2=O)CN1 [Example 182, 1-{[(2R,5R)-1-{2-[6-(2-Chlorophenoxy)-3,3-dimethyl-1H,2H,3H-pyrrolo[3,2-c]pyridin-1-yl]-2-oxoethyl}-5-methylpiperazin-2-yl]methyl}pyrrolidin-2-one hydrochloride] |  |  |  | inhibition at […] ([3]; 3 h, Probe B, @ 0.012 μM, read-out: IC50 or PI cIAP1: PI): 62%; inhibition at 0.04 µM ([4]; @ 0.04 μM): 73%
8 | 380 | < 10000 | < 10000 | 1100 | 120 | COC[C@H]1CN[C@H](C)CN1CC(=O)N1CC(C)(C)c2cnc(Oc3c(F)cccc3F)cc21 [Example 128, 1-[6-(2,6-Difluorophenoxy)-3,3-dimethyl-1H,2H,3H-pyrrolo[3,2-c]pyridin-1-yl]-2-[(2R,5R)-2-(methoxymethyl)-5-methylpiperazin-1-yl]ethan-1-one hydrochloride] |  |  |  | 
9 | 190 | < 10000 |  | 380 | 21 | C[C@@H]1CN(CC(=O)N2CC(C)(C)c3cnc(Cc4ccccc4)cc32)[C@@H](CF)CN1 [Example 121, 1-{6-Benzyl-3,3-dimethyl-1H,2H,3H-pyrrolo[3,2-c]pyridin-1-yl}-2-[(2R,5R)-2-(fluoromethyl)-5-methylpiperazin-1-yl]ethan-1-one hydrochloride] |  |  |  | 
10 | 340 | < 10000 | < 10000 | 320 | 17 | COC[C@H]1CN[C@H](C)CN1CC(=O)N1CC(C)(C)c2cnc(Cc3cccc(F)c3)cc21 [Example 97, 1-{6-[(3-Fluorophenyl)methyl]-3,3-dimethyl-1H,2H,3H-pyrrolo[3,2-c]pyridin-1-yl}-2-[(2R,5R)-2-(methoxy-methyl)-5-methyl-piperazin-1-yl]ethan-1-one, hydrochloride salt] |  |  |  | 
11 | 240 | < 10000 |  | 730 | 12 | COC[C@H]1CN[C@H](C)CN1CC(=O)N1CC(C)(c2ccccn2)c2ccc(Cc3ccccc3)cc21 (stereo partly drawn) [Example 144, 1-[6-Benzyl-3-methyl-3-(pyridin-2-yl)-2,3-dihydro-1H-indol-1-yl]-2-[(2R,5R)-2-(methoxymethyl)-5-methylpiperazin-1-yl]ethan-1-one hydrochloride] |  |  |  | 
12 | 220 | < 10000 | < 10000 | 34 |  | COC[C@H]1CN[C@H](C)CN1CC(=O)N1CC(C)(C)c2cnc(Cc3ccc(Cl)cc3)cc21 [Example 82, 1-[6-(4-Chloro-benzyl)-3,3-dimethyl-2,3-dihydro-pyrrolo[3,2-c]pyridin-1-yl]-2-((2R,5R)-2-methoxymethyl-5-methyl-piperazin-1-yl)-ethanone] |  |  |  | inhibition at 0.01 µM ([3]; 3 h, Probe B, @ 0.01 μM, read-out: IC50 or PI cIAP1: PI): 86%
